Laboratory results from publication PMC9780937 (Molecules, 2022).

Assays:
MOR = test system: MOR; set-up: method as in 3 sources, one per row (each row's own in cited_ref): ref 19 = [19]; PMID 29708942; doi:10.1097/j.pain.0000000000001262; 19. Drieu La Rochelle A. Guillemyn K. Dumitrascuta M. Martin C. Utard V. Quillet R. Schneider S. Daubeuf F. Willemse T. Mampuys P. A bifunctional-biased mu-opioid agonist-neuropeptide FF receptor anta ||| ref suppl. ref 1 ||| ref 19 (suppl. ref 1); details: cited from earlier work
human MOR = assay: Comparison of G protein activation ([35S]GTPγS binding) and β-arrestin2 recruitment (PathHunter)
mice = assay: Acetic acid-induced writhing assay (visceral pain); type: in vivo, mouse (male CD1); details: s.c.

Cc1cc(O)cc(C)c1C[C@H](N)C(=O)N[C@H](CCCNC(=N)N)C(=O)NC1Cc2ccccc2CN(CCC(=O)NC(CCCN2CCC(Cc3ccccc3)CC2)C(=O)N[C@@H](Cc2ccccc2)C(N)=O)C1=O (stereo partly drawn) [KGFF09, H-Dmt-DArg-Aba-βAla-Bpa-Phe-NH2]
EC50 (MOR; HEK293 cells expressing eYFP-tagged β-arrestin-2, MOR-Rluc8, ref 19 (suppl. ref 1), read-out: EC50, BRET β-arrestin2 recruitment (Table S3)): 56.4 nM | BRET β-arrestin2 recruitment and bias (MOR; HEK293 cells, MOR): reduced efficacy (acting as a partial agonist) in inducing β-arrestin2 recruitment | Signaling bias at MOR in vitro, earlier study (MOR): G protein-biased MOR agonist | Emax, BRET β-arrestin2 recruitment (Table S3) (MOR; relative to maximal effect of DAMGO (100%), HEK293 cells, ref 19 (suppl. ref 1)): 42% | Decrease in potency, β-arrestin2 recruitment vs G protein activation (human MOR; PathHunter vs [35S]GTPγS binding, human MOR): 153 fold | Signaling bias at MOR (human MOR; [35S]GTPγS binding vs PathHunter β-arrestin2): G protein-biased MOR agonist in vitro | Antinociceptive ED50, writhing assay (mice; 30 min after administration, Litchfield and Wilcoxon): 0.079 µmol/kg | Effect in writhing assay (mice; mice): yes and dose-dependent inhibition of the writhing behavior | Potency vs morphine, writhing assay (mice; ratio of ED50 (morphine ED50 from ref 24)): 17 fold
